One may read the GI50 as the concentration giving 50% growth inhibition. The term inhibition denotes the share of the control response that was lost under treatment. Lower therefore signals little suppression.

Results on seven compounds are retold here after ChEMBL document CHEMBL5505991, “Novel sulfonamide-indolinone hybrids targeting mitochondrial respiration of breast cancer cells” (Eur J Med Chem, 2024).

Aurora kinase B, sequence (Q96GD4 whole entry): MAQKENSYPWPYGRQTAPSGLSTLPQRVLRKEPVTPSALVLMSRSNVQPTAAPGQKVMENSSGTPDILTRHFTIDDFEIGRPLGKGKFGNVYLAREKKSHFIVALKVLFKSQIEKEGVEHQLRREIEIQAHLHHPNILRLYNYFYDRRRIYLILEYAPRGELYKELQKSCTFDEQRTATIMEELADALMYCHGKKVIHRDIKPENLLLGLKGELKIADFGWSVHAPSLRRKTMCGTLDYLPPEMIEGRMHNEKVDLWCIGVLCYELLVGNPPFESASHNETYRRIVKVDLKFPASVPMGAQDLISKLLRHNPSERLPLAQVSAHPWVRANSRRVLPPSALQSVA

The first assay relates to MCF7. Put plainly: Antiproliferative activity against human MCF7 cells assessed as cell growth at 10 uM incubated for 72 hrs by SRB assay relative to control. The assay is classed as functional. The conditions noted are these: read-out: Activity.
In the case of `O=C1Nc2cc(-c3ccc(NS(=O)(=O)c4ccc(C(F)(F)F)cc4)cc3)ccc2/C1=C/c1ccc[nH]1`, the growth at 10 µM was 0.78%.
Regarding `O=C1Nc2cc(-c3ccc(NS(=O)(=O)c4cccc(Cl)c4)cc3)ccc2/C1=C/c1ccc[nH]1`, the growth at 10 µM is -6.08%.
Same read-out and setting: under `Cc1ccc(S(=O)(=O)Nc2ccc(-c3ccc4c(c3)NC(=O)/C4=C\c3ccc[nH]3)cc2)cc1` stands 3.35%; under `O=C1Nc2cc(-c3ccc(NS(=O)(=O)c4cccc(Br)c4)cc3)ccc2/C1=C/c1ccc[nH]1`, -18.4%.
On the same count and under the same terms, in the case of `COc1ccc(S(=O)(=O)Nc2ccc(-c3ccc4c(c3)NC(=O)/C4=C\c3ccc[nH]3)cc2)cc1OC` it was -39%; in that of `Cc1[nH]c(/C=C2\C(=O)Nc3cc(-c4ccc(NS(=O)(=O)c5ccc(F)c(Cl)c5)cc4)ccc32)c(C)c1NS(C)(=O)=O`, 4.18%; in that of `O=C1Nc2cc(-c3ccc(NS(=O)(=O)c4ccc5ccccc5c4)cc3)ccc2/C1=C/c1ccc[nH]1`, -51.9%.

The test system of a further assay is MCF7. The assay can be described thus: Growth inhibition of human MCF7 cells incubated for 72 hrs by SRB assay. The assay is classed as functional.
Conditions: not given
On the technique in general: Sulforhodamine B stains cellular protein and so reports cell mass.
In the case of `O=C1Nc2cc(-c3ccc(NS(=O)(=O)c4ccc(C(F)(F)F)cc4)cc3)ccc2/C1=C/c1ccc[nH]1`, the GI50 was determined as 81.8 nM. That is a double-digit nanomolar value.
The same measure, in the same setting: in the case of `O=C1Nc2cc(-c3ccc(NS(=O)(=O)c4cccc(Br)c4)cc3)ccc2/C1=C/c1ccc[nH]1` it was 30.2 nM; in that of `COc1ccc(S(=O)(=O)Nc2ccc(-c3ccc4c(c3)NC(=O)/C4=C\c3ccc[nH]3)cc2)cc1OC`, 47.7 nM; in that of `O=C1Nc2cc(-c3ccc(NS(=O)(=O)c4ccc5ccccc5c4)cc3)ccc2/C1=C/c1ccc[nH]1`, 33.6 nM.

A further assay has as its system MDA-MB-468. Put plainly: Antiproliferative activity against human MDA-MB-468 cells assessed as cell growth at 10 uM incubated for 72 hrs by SRB assay relative to control. The assay is classed as functional. The conditions noted are these: read-out: Activity.
Take `O=C1Nc2cc(-c3ccc(NS(=O)(=O)c4ccc(C(F)(F)F)cc4)cc3)ccc2/C1=C/c1ccc[nH]1`: the growth at 10 µM was -26.2%.
For the compound `O=C1Nc2cc(-c3ccc(NS(=O)(=O)c4cccc(Cl)c4)cc3)ccc2/C1=C/c1ccc[nH]1`, the growth at 10 µM was -29.3%.
Still for that read-out and setting: in the case of `Cc1ccc(S(=O)(=O)Nc2ccc(-c3ccc4c(c3)NC(=O)/C4=C\c3ccc[nH]3)cc2)cc1` it was -25.8%; in that of `O=C1Nc2cc(-c3ccc(NS(=O)(=O)c4cccc(Br)c4)cc3)ccc2/C1=C/c1ccc[nH]1`, -44%.
As for `COc1ccc(S(=O)(=O)Nc2ccc(-c3ccc4c(c3)NC(=O)/C4=C\c3ccc[nH]3)cc2)cc1OC`, the growth at 10 µM was -56.2%.
As to `Cc1[nH]c(/C=C2\C(=O)Nc3cc(-c4ccc(NS(=O)(=O)c5ccc(F)c(Cl)c5)cc4)ccc32)c(C)c1NS(C)(=O)=O`, the growth at 10 µM was determined as 8.19%.
`O=C1Nc2cc(-c3ccc(NS(=O)(=O)c4ccc5ccccc5c4)cc3)ccc2/C1=C/c1ccc[nH]1`: the growth at 10 µM was -80.8%.

Another assay deals with MDA-MB-468. Put plainly: Growth inhibition of human MDA-MB-468 cells incubated for 72 hrs by SRB assay.
Conditions: not given
Format: functional.
Take `O=C1Nc2cc(-c3ccc(NS(=O)(=O)c4ccc(C(F)(F)F)cc4)cc3)ccc2/C1=C/c1ccc[nH]1`: halving of growth (GI50) required 31.1 nM.
Same read-out and setting: in the case of `O=C1Nc2cc(-c3ccc(NS(=O)(=O)c4cccc(Br)c4)cc3)ccc2/C1=C/c1ccc[nH]1` it was 28.6 nM.
For `COc1ccc(S(=O)(=O)Nc2ccc(-c3ccc4c(c3)NC(=O)/C4=C\c3ccc[nH]3)cc2)cc1OC`, the GI50 is 30.9 nM.
Still for that read-out and setting: in the case of `O=C1Nc2cc(-c3ccc(NS(=O)(=O)c4ccc5ccccc5c4)cc3)ccc2/C1=C/c1ccc[nH]1` it was 25.4 nM.

The subject of a further assay is T47D. The assay can be described thus: Antiproliferative activity against human T47D cells assessed as cell growth at 10 uM incubated for 72 hrs by SRB assay relative to control. The assay is classed as functional. As to conditions: read-out: Activity.
As to `O=C1Nc2cc(-c3ccc(NS(=O)(=O)c4ccc(C(F)(F)F)cc4)cc3)ccc2/C1=C/c1ccc[nH]1`, the growth at 10 µM worked out at 18.1%.
Same read-out and setting: in the case of `O=C1Nc2cc(-c3ccc(NS(=O)(=O)c4cccc(Cl)c4)cc3)ccc2/C1=C/c1ccc[nH]1` it was 12.1%.
In the case of `Cc1ccc(S(=O)(=O)Nc2ccc(-c3ccc4c(c3)NC(=O)/C4=C\c3ccc[nH]3)cc2)cc1`, the growth at 10 µM was 18.8%.
On the same count and under the same terms, in the case of `O=C1Nc2cc(-c3ccc(NS(=O)(=O)c4cccc(Br)c4)cc3)ccc2/C1=C/c1ccc[nH]1` it was 15.6%.
On to `COc1ccc(S(=O)(=O)Nc2ccc(-c3ccc4c(c3)NC(=O)/C4=C\c3ccc[nH]3)cc2)cc1OC`, for which the growth at 10 µM is -21%.
On the same count and under the same terms, under `Cc1[nH]c(/C=C2\C(=O)Nc3cc(-c4ccc(NS(=O)(=O)c5ccc(F)c(Cl)c5)cc4)ccc32)c(C)c1NS(C)(=O)=O` stands 17.9%.
Same read-out and setting: under `O=C1Nc2cc(-c3ccc(NS(=O)(=O)c4ccc5ccccc5c4)cc3)ccc2/C1=C/c1ccc[nH]1` stands -16.7%.

The next assay has as its system T47D. Put plainly: Growth inhibition of human T47D cells incubated for 72 hrs by SRB assay. The assay is classed as functional.
Conditions: not given
On to `O=C1Nc2cc(-c3ccc(NS(=O)(=O)c4ccc(C(F)(F)F)cc4)cc3)ccc2/C1=C/c1ccc[nH]1`, for which it took 230 nM to inhibit growth by half (GI50).
Still for that read-out and setting: under `O=C1Nc2cc(-c3ccc(NS(=O)(=O)c4cccc(Br)c4)cc3)ccc2/C1=C/c1ccc[nH]1` stands 41.7 nM.
Take `COc1ccc(S(=O)(=O)Nc2ccc(-c3ccc4c(c3)NC(=O)/C4=C\c3ccc[nH]3)cc2)cc1OC`: the GI50 is 28.5 nM.
Same read-out and setting: under `O=C1Nc2cc(-c3ccc(NS(=O)(=O)c4ccc5ccccc5c4)cc3)ccc2/C1=C/c1ccc[nH]1` stands 47.1 nM.

The next assay concerns the target Aurora kinase B (Homo sapiens, UniProt Q96GD4). Put plainly: Inhibition of Aurora B (unknown origin) at 100 nM by Z-LYTE assay relative to control.
Conditions: not given
As to `O=C1Nc2cc(-c3ccc(NS(=O)(=O)c4ccc(C(F)(F)F)cc4)cc3)ccc2/C1=C/c1ccc[nH]1`, the inhibition is 18%.
`O=C1Nc2cc(-c3ccc(NS(=O)(=O)c4cccc(Cl)c4)cc3)ccc2/C1=C/c1ccc[nH]1` displayed an inhibition of 43%.
In the case of `Cc1ccc(S(=O)(=O)Nc2ccc(-c3ccc4c(c3)NC(=O)/C4=C\c3ccc[nH]3)cc2)cc1`, the inhibition is 23%.
On the same count and under the same terms, in the case of `O=C1Nc2cc(-c3ccc(NS(=O)(=O)c4cccc(Br)c4)cc3)ccc2/C1=C/c1ccc[nH]1` it was 38%; in that of `COc1ccc(S(=O)(=O)Nc2ccc(-c3ccc4c(c3)NC(=O)/C4=C\c3ccc[nH]3)cc2)cc1OC`, 33%; in that of `Cc1[nH]c(/C=C2\C(=O)Nc3cc(-c4ccc(NS(=O)(=O)c5ccc(F)c(Cl)c5)cc4)ccc32)c(C)c1NS(C)(=O)=O`, 53%.
Still for that read-out and setting: in the case of `O=C1Nc2cc(-c3ccc(NS(=O)(=O)c4ccc5ccccc5c4)cc3)ccc2/C1=C/c1ccc[nH]1` it was 20%.
